# Assay results from ChEMBL document CHEMBL4765295, “Synthesis, pharmacological profile and 2D-QSAR studies of curcumin-amino acid conjugates as potential drug candidates” (Eur J Med Chem, 2020).
# Values joined by “and” are separate entries in the source; they are usually repeats but may differ in a detail not shown here. Identical values can stand only once.
# Tested on: Rattus norvegicus
# Experiment: Antiinflammatory activity in Wistar rat model of carrageenan-induced paw edema assessed as reduction in thickness of paw edema at 10 mg/kg, ip pretreated for 1 hr followed by carrageenan challenge and measured after 1 hr (reference value: 2.41 +/-0.05 mm)
# Assay type: functional
# Conditions: time 1 hr after carrageenan
row,SMILES,Activity [mm]
1,COc1cc(/C=C/C(=O)/C=C(O)/C=C/c2ccc(OC(=O)[C@H](N)CCSC)c(OC)c2)ccc1OC(=O)[C@H](N)CCSC.Cl.Cl,0.99

# Tested on: Rattus norvegicus
# Experiment: Anti-inflammatory activity in Wistar rat assessed as inhibition of carrageenan-induced paw edema at 10 mg/kg, ip pretreated for 1 hr followed by carrageenan challenge and measured after 1 hr relative to control (reference value: 0.00 +/-0.02 %)
# Assay type: functional
# Conditions: time 2 hrs
row,SMILES,inhibition in vivo at 10 mg/kg [%]
1,COc1cc(/C=C/C(=O)/C=C(O)/C=C/c2ccc(OC(=O)[C@H](N)CCSC)c(OC)c2)ccc1OC(=O)[C@H](N)CCSC.Cl.Cl,59

# Tested on: Mus musculus
# Experiment: Analgesic activity in albino mouse assessed as protection at 10 mg/kg, ip measured after 120 mins by hot plate test relative to indomethacin
# Assay type: functional
# Conditions: 2 h
row,SMILES,Activity [%]
1,COc1cc(/C=C/C(=O)/C=C(O)/C=C/c2ccc(OC(=O)[C@H](N)CCSC)c(OC)c2)ccc1OC(=O)[C@H](N)CCSC.Cl.Cl,54.5

# Tested on: Mus musculus
# Experiment: Analgesic activity in albino mouse assessed as protection at 10 mg/kg, ip measured after 30 mins by hot plate test (reference value: 0 %)
# Assay type: functional
# Conditions: 0.5 h
row,SMILES,Activity [%]
1,COc1cc(/C=C/C(=O)/C=C(O)/C=C/c2ccc(OC(=O)[C@H](N)CCSC)c(OC)c2)ccc1OC(=O)[C@H](N)CCSC.Cl.Cl,6.8

# Tested on: Mus musculus
# Experiment: Analgesic activity in albino mouse assessed as forepaw licking/jumping latency time at 10 mg/kg, ip measured after 60 mins by hot plate test (reference value: 3.42 +/- 0.03 sec)
# Assay type: functional
# Conditions: 1 h
row,SMILES,Time [s]
1,COc1cc(/C=C/C(=O)/C=C(O)/C=C/c2ccc(OC(=O)[C@H](N)CCSC)c(OC)c2)ccc1OC(=O)[C@H](N)CCSC.Cl.Cl,4.78

# Tested on: Mus musculus
# Experiment: Analgesic activity in albino mouse assessed as protection at 10 mg/kg, ip measured after 120 mins by hot plate test (reference value: 0 %)
# Assay type: functional
# Conditions: 2 h
row,SMILES,Activity [%]
1,COc1cc(/C=C/C(=O)/C=C(O)/C=C/c2ccc(OC(=O)[C@H](N)CCSC)c(OC)c2)ccc1OC(=O)[C@H](N)CCSC.Cl.Cl,22.9

# Tested on: Peritoneal macrophage
# Experiment: Antiinflammatory activity in […] mouse Peritoneal macrophages assessed as inhibition of LPS-induced NO production at 10 uM preincubated for 1 hr followed by LPS stimulation measured after 24 hrs by Griess method relative to control (reference value: 0.0 %)
# Assay type: functional
# Set-up: scale not given: the % may be the effect or the level left
# Conditions: time 25 hrs
row,SMILES,Activity [%]
1,COc1cc(/C=C/C(=O)/C=C(O)/C=C/c2ccc(OC(=O)[C@H](N)CCSC)c(OC)c2)ccc1OC(=O)[C@H](N)CCSC.Cl.Cl,49.57

# Tested on: Mus musculus
# Experiment: Analgesic activity in albino mouse assessed as forepaw licking/jumping latency time at 10 mg/kg, ip measured after 120 mins by hot plate test (reference value: 2.62 +/- 0.06 sec)
# Assay type: functional
# Conditions: 2 h
row,SMILES,Time [s]
1,COc1cc(/C=C/C(=O)/C=C(O)/C=C/c2ccc(OC(=O)[C@H](N)CCSC)c(OC)c2)ccc1OC(=O)[C@H](N)CCSC.Cl.Cl,3.22

# Tested on: not listed separately
# Experiment: Ulcerogenic activity in fasted albino mouse assessed as average number of ulcers in gastric mucosa at 10 mg/kg, po for 3 days (reference value: 0)
# Assay type: toxicity, organism-based
# Conditions: in vivo, 72 h, time 3 day
row,SMILES,Activity
1,COc1cc(/C=C/C(=O)/C=C(O)/C=C/c2ccc(OC(=O)[C@H](N)CCSC)c(OC)c2)ccc1OC(=O)[C@H](N)CCSC.Cl.Cl,0

# Tested on: Peritoneal macrophage
# Experiment: Antiinflammatory activity in […] mouse Peritoneal macrophages assessed as reduction in LPS-induced NO production by measuring reduction in stimulation index at 10 uM preincubated for 1 hr followed by LPS stimulation measured after 24 hrs by Griess method (reference value: 27.31 +/- 2.56 uM)
# Assay type: functional
# Conditions: time 25 hrs
row,SMILES,Activity [µM]
1,COc1cc(/C=C/C(=O)/C=C(O)/C=C/c2ccc(OC(=O)[C@H](N)CCSC)c(OC)c2)ccc1OC(=O)[C@H](N)CCSC.Cl.Cl,13.77

# Tested on: Rattus norvegicus
# Experiment: Anti-inflammatory activity in Wistar rat assessed as inhibition of carrageenan-induced paw edema at 10 mg/kg, ip pretreated for 1 hr followed by carrageenan challenge and measured after 3 hr relative to control (reference value: 0.00 +/-0.1 %)
# Assay type: functional
# Conditions: time 4 hrs
row,SMILES,inhibition in vivo at 10 mg/kg [%]
1,COc1cc(/C=C/C(=O)/C=C(O)/C=C/c2ccc(OC(=O)[C@H](N)CCSC)c(OC)c2)ccc1OC(=O)[C@H](N)CCSC.Cl.Cl,65

# Tested on: Splenocyte
# Experiment: Immunomodulatory activity in Swiss albino mouse splenocytes assessed as cell viability at 10 uM by measuring inhibition of stimulation index incubated for 72 hrs in presence of mitogenic stimulus phytohaemagglutinin by MTT assay relative to indomethacin
# Assay type: functional
# Conditions: read-out: Activity
row,SMILES,viability at 10 µM [%]
1,COc1cc(/C=C/C(=O)/C=C(O)/C=C/c2ccc(OC(=O)[C@H](N)CCSC)c(OC)c2)ccc1OC(=O)[C@H](N)CCSC.Cl.Cl,120

# Tested on: not listed separately
# Experiment: Ulcerogenic activity in fasted albino mouse assessed as ulcer index in gastric mucosa at 10 mg/kg, po for 3 days (reference value: 0)
# Assay type: toxicity, organism-based
# Conditions: in vivo, 72 h, time 3 day
row,SMILES,UI
1,COc1cc(/C=C/C(=O)/C=C(O)/C=C/c2ccc(OC(=O)[C@H](N)CCSC)c(OC)c2)ccc1OC(=O)[C@H](N)CCSC.Cl.Cl,0

# Tested on: Rattus norvegicus
# Experiment: Anti-inflammatory activity in Wistar rat assessed as inhibition of carrageenan-induced paw edema at 10 mg/kg, ip pretreated for 1 hr followed by carrageenan challenge and measured after 4 hr relative to indomethacin
# Assay type: functional
# Conditions: time 5 hrs
row,SMILES,inhibition in vivo at 10 mg/kg [%]
1,COc1cc(/C=C/C(=O)/C=C(O)/C=C/c2ccc(OC(=O)[C@H](N)CCSC)c(OC)c2)ccc1OC(=O)[C@H](N)CCSC.Cl.Cl,113

# Tested on: Pseudomonas aeruginosa
# Experiment: Antibacterial activity against Pseudomonas aeruginosa ATCC 27853 incubated for 18 hrs by agar dilution assay
# Assay type: functional
# Conditions: not given
row,MIC,SMILES
1,1 µg/mL and 1.42 µM,COc1cc(/C=C/C(=O)/C=C(O)/C=C/c2ccc(OC(=O)[C@H](N)CCSC)c(OC)c2)ccc1OC(=O)[C@H](N)CCSC.Cl.Cl

# Tested on: not listed separately
# Experiment: Ulcerogenic activity in fasted albino mouse assessed as incidence of gastric ulceration at 10 mg/kg, po for 3 days (reference value: 0 %)
# Assay type: toxicity, organism-based
# Conditions: in vivo, 72 h, time 3 day
row,SMILES,Activity [%]
1,COc1cc(/C=C/C(=O)/C=C(O)/C=C/c2ccc(OC(=O)[C@H](N)CCSC)c(OC)c2)ccc1OC(=O)[C@H](N)CCSC.Cl.Cl,0

# Tested on: not listed separately
# Experiment: Toxicity in albino mouse assessed as induction of toxic symptoms at 50 to 100 mg/kg, ip measured after 24 hrs
# Assay type: organism-based
# Conditions: in vivo, dose 50-100 mg/kg
row,SMILES,Activity
1,COc1cc(/C=C/C(=O)/C=C(O)/C=C/c2ccc(OC(=O)[C@H](N)CCSC)c(OC)c2)ccc1OC(=O)[C@H](N)CCSC.Cl.Cl,Non-Toxic

# Tested on: Candida albicans
# Experiment: Antifungal activity against Candida albicans incubated for 18 to 24 hrs by CLSI method
# Assay type: functional
# Conditions: time 18-24 hrs
row,MIC,SMILES
1,1 µg/mL and 1.42 µM,COc1cc(/C=C/C(=O)/C=C(O)/C=C/c2ccc(OC(=O)[C@H](N)CCSC)c(OC)c2)ccc1OC(=O)[C@H](N)CCSC.Cl.Cl

# Tested on: Mus musculus
# Experiment: Analgesic activity in albino mouse assessed as protection at 10 mg/kg, ip measured after 60 mins by hot plate test (reference value: 0 %)
# Assay type: functional
# Conditions: 1 h
row,SMILES,Activity [%]
1,COc1cc(/C=C/C(=O)/C=C(O)/C=C/c2ccc(OC(=O)[C@H](N)CCSC)c(OC)c2)ccc1OC(=O)[C@H](N)CCSC.Cl.Cl,39.8

# Tested on: Rattus norvegicus
# Experiment: Antiinflammatory activity in Wistar rat model of carrageenan-induced paw edema assessed as reduction in thickness of paw edema at 10 mg/kg, ip pretreated for 1 hr followed by carrageenan challenge and measured after 3 hrs (reference value: 1.79 +/-0.07 mm)
# Assay type: functional
# Conditions: time 4 hrs
row,SMILES,Activity [mm]
1,COc1cc(/C=C/C(=O)/C=C(O)/C=C/c2ccc(OC(=O)[C@H](N)CCSC)c(OC)c2)ccc1OC(=O)[C@H](N)CCSC.Cl.Cl,0.62
